Data reported in patent publication US8835428B2, “Diacylglycerol acyltransferase inhibitors” (Piramal Enterprises Limited, priority 2008, dated 2014).

Biological target: T1, hDGAT1 (Homo sapiens, UniProt O75907)
T1 construct: host or cells: Sf9 insect cells (baculovirus); microsomal preparation
T1 sequence (O75907 1-488): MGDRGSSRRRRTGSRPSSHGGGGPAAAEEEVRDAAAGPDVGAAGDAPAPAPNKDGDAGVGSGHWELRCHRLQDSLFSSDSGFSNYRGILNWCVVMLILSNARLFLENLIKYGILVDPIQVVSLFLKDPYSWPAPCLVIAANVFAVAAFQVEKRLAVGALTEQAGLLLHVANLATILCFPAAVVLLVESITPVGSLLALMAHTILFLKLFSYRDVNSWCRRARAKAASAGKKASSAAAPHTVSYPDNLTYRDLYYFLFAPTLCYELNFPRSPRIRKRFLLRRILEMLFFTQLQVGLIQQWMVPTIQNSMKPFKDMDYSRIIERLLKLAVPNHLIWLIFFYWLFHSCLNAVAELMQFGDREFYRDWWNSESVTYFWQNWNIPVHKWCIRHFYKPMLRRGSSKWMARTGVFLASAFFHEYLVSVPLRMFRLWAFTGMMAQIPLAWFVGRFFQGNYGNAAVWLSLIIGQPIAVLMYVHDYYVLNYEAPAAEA
Assay: In-vitro DGAT1 assay (hDGAT1 microsomes from Sf9 cells, 14C oleoyl CoA, triglyceride formation)
Type: biochemical
Details: for inhibition at 1 µM / % inhibition of hDGAT1: At 1 μM
How it was run: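 Compounds tested in duplicate at 10, 5 and 1 μM for 10 min at 37 °C. Reaction: Sf9-expressed hDGAT1 microsomes (2.5–10 μg), [14C]oleoyl-CoA plus 409.5–1638 μM dioleoylglycerol, pH 7.4 Tris-HCl with fatty-acid-free BSA. Radiolabelled triglyceride extracted into heptane and scintillation-counted.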

inhibition at 5 µM [%] | Compound | also measured
50 to 75 | CC(C)[C@H](NC(=O)c1cc(-c2ccc(NC(=S)Nc3cccc(F)c3)cc2)no1)C(=O)O [Example 268, (S)-2-(3-(4-(3-(3-fluorophenyl)thioureido)phenyl)isoxazole-5-carboxamido)-3-methylbutanoic acid] | 
50 to 75 | CC(C)[C@H](NC(=O)c1cc(-c2ccc(NC(=S)Nc3ccccc3F)cc2)no1)C(=O)O [Example 270, (S)-2-(3-(4-(3-(2-fluorophenyl)thioureido)phenyl)isoxazole-5-carboxamido)-3-methylbutanoic acid] | 
0 to 50 | COC(=O)[C@@H](NC(=O)c1cc(-c2ccc(NC(=S)Nc3ccc(C)cc3)cc2)no1)C(C)C [Example 271, (S)-Methyl 3-methyl-2-(3-(4-(3-p-tolylthioureido)phenyl)isoxazole-5-carboxamido)butanoate] | 
0 to 50 | COC(=O)C(NC(=O)c1cc(-c2ccc(NC(=O)Nc3ccc(C(F)(F)F)cc3)cc2)no1)C(C)C (stereo not shown) [Example 275, Methyl 3-methyl-2-(3-(4-(3-(4-(trifluoromethyl)phenyl)ureido)phenyl)isoxazole-5-carboxamido)butanoate] | 
75 to 100 | CC(C)C(NC(=O)c1cc(-c2ccc(NC(=O)Nc3ccc(C(F)(F)F)cc3)cc2)no1)C(=O)O (stereo not shown) [Example 276, 3-Methyl-2-(3-(4-(3-(4-(trifluoromethyl)phenyl)ureido)phenyl)isoxazole-5-carboxamido)butanoic acid] | 
0 to 50 | COC(=O)C(NC(=O)c1cc(-c2ccc(NC(=O)Nc3cccc(C(F)(F)F)c3)cc2)no1)C(C)C (stereo not shown) [Example 277, Methyl 3-methyl-2-(3-(4-(3-(3-(trifluoromethyl)phenyl)ureido)phenyl)isoxazole-5-carboxamido)butanoate] | 
75 to 100 | CC(C)C(NC(=O)c1cc(-c2ccc(NC(=O)Nc3cccc(C(F)(F)F)c3)cc2)no1)C(=O)O (stereo not shown) [Example 278, 3-Methyl-2-(3-(4-(3-(3-(trifluoromethyl)phenyl)ureido)phenyl)isoxazole-5-carboxamido)butanoic acid] | 
50 to 75 | CC(C)C(NC(=O)c1cc(-c2ccc(NC(=O)Nc3ccccn3)cc2)no1)C(=O)O (stereo not shown) [Example 280, 3-methyl-2-(3-(4-(3-pyridin-2-ylureido)phenyl)isoxazole-5-carboxamido)butanoic acid] | 
75 to 100 | Cc1cc(F)ccc1NC(=O)Nc1ccc(-c2cc(C(=O)NC(C(=O)O)C(C)C)on2)cc1 (stereo not shown) [Example 285, 2-(3-(4-(3-(4-fluoro-2-methylphenyl)ureido)phenyl)isoxazole-5-carboxamido)-3-methylbutanoic acid] | 

More lines, now with the values behind:

Compound | inhibition at 5 µM [%] | also measured
COC(=O)[C@@H](NC(=O)c1cc(-c2ccc(NC(=S)Nc3ccccc3F)cc2)no1)C(C)C [Example 269, (S)-methyl 2-(3-(4-(3-(2-fluorophenyl)thioureido)phenyl)isoxazole-5-carboxamido)-3-methylbutanoate] | 0 to 50 | 
COC(=O)[C@H](Cc1ccc(O)cc1)NC(=O)c1cc(-c2ccc(NC(=O)Nc3ccc(C)cc3)cc2)no1 [Example 272, (S)-Methyl 3-(4-hydroxyphenyl)-2-(3-(4-(3-p-tolylureido)phenyl)isoxazole-5-carboxamido)propanoate] | 0 to 50 | 
Cc1ccc(NC(=O)Nc2ccc(-c3cc(C(=O)N[C@@H](Cc4ccc(O)cc4)C(=O)O)on3)cc2)cc1 [Example 273, (S)-3-(4-Hydroxyphenyl)-2-(3-(4-(3-p-tolylureido)phenyl)isoxazole-5-carboxamido)propanoic acid] | 50 to 75 | 
COC(=O)[C@H](Cc1ccc(O)cc1)NC(=O)c1cc(-c2ccc(NC(=O)Nc3ccccc3F)cc2)no1 [Example 274, (S)-Methyl 2-(3-(4-(3-(2-fluorophenyl)ureido)phenyl)isoxazole-5-carboxamido)-3-(4-hydroxyphenyl)propanoate] | 0 to 50 | 
COC(=O)C(NC(=O)c1cc(-c2ccc(NC(=O)Nc3ccccn3)cc2)no1)C(C)C (stereo not shown) [Example 279, Methyl 3-methyl-2-(3-(4-(3-pyridin-2-ylureido)phenyl)isoxazole-5-carboxamido)butanoate] | 0 to 50 | 
COC(=O)C(NC(=O)c1cc(-c2ccc(NC(=O)Nc3ccc(-c4cc(C(=O)NC(C(=O)OC)C(C)C)on4)cc3)cc2)no1)C(C)C (stereo not shown) [Example 281, 2-({3-[4-(3-{4-[5-(1-Methoxycarbonyl-2-methyl-propylcarbamoyl)-isoxazol-3-yl]-phenyl}-ureido)-phenyl]-isoxazol-5-carbonyl}-amino)-3-methyl-butyric acid methyl ester] | 0 to 50 | 
CC(C)C(NC(=O)c1cc(-c2ccc(NC(=O)Nc3ccc(-c4cc(C(=O)NC(C(=O)O)C(C)C)on4)cc3)cc2)no1)C(=O)O (stereo not shown) [Example 282, 2-({3-[4-(3-{4-[5-(1-Carboxy-2-methyl-propylcarbamoyl)-isoxazol-3-yl]-phenyl}-ureido)-phenyl]-isoxazol-5-carbonyl}-amino)-3-methyl-butyric acid] | 0 to 50 | 
COC(=O)c1ccc(NC(=O)Nc2ccc(-c3cc(C(=O)NC(C(=O)OC)C(C)C)on3)cc2)cc1 (stereo not shown) [Example 283, Methyl 4-(3-(4-(5-(1-methoxy-3-methyl-1-oxobutan-2-ylcarbamoyl)isoxazol-3-yl)phenyl)ureido)benzoate] |  | inhibition at 1 µM: 0 to 50%
COC(=O)C(NC(=O)c1cc(-c2ccc(NC(=O)Nc3ccc(F)cc3C)cc2)no1)C(C)C (stereo not shown) [Example 284, Methyl 2-(3-(4-(3-(4-fluoro-2-methylphenyl)ureido)phenyl)isoxazole-5-carboxamido)-3-methylbutanoate] | 50 to 75 | 
CC(C)C(NC(=O)c1cc(-c2ccc(NC(=O)Nc3ccc(OC(F)(F)F)cc3Cl)cc2)no1)C(=O)O (stereo not shown) [Example 287, 2-(3-(4-(3-(2-chloro-4-(trifluoromethoxy)phenyl)ureido)phenyl)isoxazole-5-carboxamido)-3-methylbutanoic acid] |  | inhibition at 1 µM: 75 to 100%
CC(C)C(NC(=O)c1cc(-c2ccc(NC(=O)Nc3ccc(OC(F)(F)F)c(Cl)c3)cc2)no1)C(=O)O (stereo not shown) [Example 289, (3-(4-(3-(3-chloro-4-(trifluoromethoxy)phenyl)ureido)phenyl)isoxazole-5-carboxamido)-3-methylbutanoic acid] |  | % inhibition of hDGAT1: +++ (>75% Inhibition ≦100)
CC(C)C(NC(=O)c1cc(-c2ccc(NC(=O)Nc3ccccc3-c3ccccc3)cc2)no1)C(=O)O (stereo not shown) [Example 291, 2-(3-(4-(3-Biphenyl-2-ylureido)phenyl)isoxazole-5-carboxamido)-3-methylbutanoic acid] |  | inhibition at 1 µM: 75 to 100%
CC(C)C(NC(=O)c1cc(-c2ccc(NC(=O)Nc3ccc(C4CCCCC4)cc3)cc2)no1)C(=O)O (stereo not shown) [Example 293, 2-(3-(4-(3-(4-cyclohexylphenyl)ureido)phenyl)isoxazole-5-carboxamido)-3-methylbutanoic acid] |  | inhibition at 1 µM: 75 to 100%
Cc1cc(OC(F)(F)F)ccc1NC(=O)Nc1ccc(-c2cc(C(=O)NC(C(=O)O)C(C)C)on2)cc1 (stereo not shown) [Example 295, 3-methyl-2-(3-(4-(3-(2-methyl-4-(trifluoromethoxy)phenyl)ureido)phenyl)isoxazole-5-carboxamido)butanoic acid] |  | inhibition at 1 µM: 75 to 100%
CC(C)C(NC(=O)c1cc(-c2ccc(NC(=O)c3ccc(C(C)(C)C)cc3)cc2)no1)C(=O)O (stereo not shown) [Example 297, 2-(3-(4-(4-tert-butylbenzamido)phenyl)isoxazole-5-carboxamido)-3-methylbutanoic acid] |  | inhibition at 1 µM: 75 to 100%
COC(=O)[C@H](CO)NC(=O)c1cc(-c2ccc(NC(=O)Nc3ccccc3F)cc2)no1 [Example 298, (S)-Methyl 2-(3-(4-(3-(2-fluorophenyl)ureido)phenyl)isoxazole-5-carboxamido)-3-hydroxypropanoate] | 50 to 75 | 
O=C(Nc1ccc(-c2cc(C(=O)N[C@@H](CO)C(=O)O)on2)cc1)Nc1ccccc1F [Example 299, (S)-2-(3-(4-(3-(2-Fluorophenyl)ureido)phenyl)isoxazole-5-carboxamido)-3-hydroxypropanoic acid] | 50 to 75 | 
CC(C)[C@H](NC(=O)c1cc(-c2ccc(NC(=O)Nc3ccccc3F)cc2)no1)C(=O)OC(C)(C)C [Example 300, (S)-tert-butyl 2-(3-(4-(3-(2-fluorophenyl)ureido)phenyl)isoxazole-5-carboxamido)-3-methylbutanoate] | 50 to 75 | 
C=C(NC(=O)c1cc(-c2ccc(NC(=O)Nc3ccccc3F)cc2)no1)C(=O)OC [Example 301, Methyl 2-(3-(4-(3-(2-fluorophenyl)ureido)phenyl)isoxazole-5-carboxamido)acrylate] | 50 to 75 | 
C=C(NC(=O)c1cc(-c2ccc(NC(=O)Nc3ccccc3F)cc2)no1)C(=O)O [Example 302, 2-(3-(4-(3-(2-Fluorophenyl)ureido)phenyl)isoxazole-5-carboxamido) acrylic acid] |  | inhibition at 1 µM: 50 to 75%
C=C(NC(=O)c1cc(-c2ccc(NC(=O)Nc3ccc(C)cc3)cc2)no1)C(=O)OC [Example 303, Methyl 2-(3-(4-(3-p-tolylureido)phenyl)isoxazole-5-carboxamido) acrylate] |  | % inhibition of hDGAT1: + (>0% Inhibition ≦50)
C=C(NC(=O)c1cc(-c2ccc(NC(=O)Nc3ccc(C)cc3)cc2)no1)C(=O)O [Example 304, 2-(3-(4-(3-p-tolylureido)phenyl)isoxazole-5-carboxamido)acrylic acid] |  | inhibition at 1 µM: 50 to 75%
